According to ChEMBL document CHEMBL3045595, “Synthesis and characterization of new types of 2-(6-methoxy-2-naphthyl)propionamide derivatives as potential antibacterial and antifungal agents” (2013):
Converted amounts (≈) assume the structure as drawn. The source made the active and inactive calls. The rule behind the calls is not given here.

Legend:
Format in all cases: functional
Bacillus subtilis [1] = assay: Antibacterial activity against Bacillus subtilis RCMB 010063 at 1 mg/ml after 24 hrs by agar well diffusion method; conditions: RCMB 010063, 24 h, read-out: DIZ
Escherichia coli [2] = assay: Antibacterial activity against Escherichia coli RCMB 000103 at 1 mg/ml after 24 hrs by agar well diffusion method; conditions: for zone of inhibition at 1000 µg/mL: RCMB 000103, 24 h, read-out: DIZ
Pseudomonas aeruginosa [3] = assay: Antibacterial activity against Pseudomonas aeruginosa RCMB 010043 at 1 mg/ml after 24 hrs by agar well diffusion method; conditions: for zone of inhibition at 1000 µg/mL: RCMB 010043, 24 h, read-out: DIZ
Aspergillus ochraceus [4] = assay: Antifungal activity against Aspergillus ochraceus RCMB 02593 at 1 mg/ml after 72 hrs by agar well diffusion method; conditions: RCMB 02593, 72 h, read-out: DIZ
Candida albicans [5] = assay: Antifungal activity against Candida albicans RCMB 05035 at 1 mg/ml after 72 hrs by agar well diffusion method; conditions: for zone of inhibition at 1000 µg/mL: RCMB 05035, 72 h, read-out: DIZ
Staphylococcus aureus [6] = assay: Antibacterial activity against Staphylococcus aureus RCMB 010027 at 1 mg/ml after 24 hrs by agar well diffusion method; conditions: RCMB 010027, 24 h, read-out: DIZ
Aspergillus ochraceus [7] = assay: Antifungal activity against Aspergillus ochraceus RCMB 02593
Staphylococcus aureus [8] = assay: Antibacterial activity against Staphylococcus aureus RCMB 010027 after 24 hrs by twofold serial dilution method; conditions: RCMB 010027, 24 h
Pseudomonas aeruginosa [9] = assay: Antibacterial activity against Pseudomonas aeruginosa RCMB 010043 after 24 hrs by twofold serial dilution method; conditions: RCMB 010043, 24 h
Escherichia coli [10] = assay: Antibacterial activity against Escherichia coli RCMB 000103 after 24 hrs by twofold serial dilution method; conditions: RCMB 000103, 24 h
Bacillus subtilis [11] = assay: Antibacterial activity against Bacillus subtilis RCMB 010063 after 24 hrs by twofold serial dilution method; conditions: RCMB 010063, 24 h
Candida albicans [12] = assay: Antifungal activity against Candida albicans RCMB 05035
Staphylococcus aureus [13] = assay: Antibacterial activity against Staphylococcus aureus RCMB 010027 at 25 ug/ml after 24 hrs by agar well diffusion method; conditions: RCMB 010027, 24 h, read-out: DIZ
Bacillus subtilis [14] = assay: Antibacterial activity against Bacillus subtilis RCMB 010063 at 25 ug/ml after 24 hrs by agar well diffusion method; conditions: RCMB 010063, 24 h, read-out: DIZ
Escherichia coli [15] = assay: Antibacterial activity against Escherichia coli RCMB 000103 at 25 ug/ml after 24 hrs by agar well diffusion method; conditions: RCMB 000103, 24 h, read-out: DIZ
Pseudomonas aeruginosa [16] = assay: Antibacterial activity against Pseudomonas aeruginosa RCMB 010043 at 25 ug/ml after 24 hrs by agar well diffusion method; conditions: RCMB 010043, 24 h, read-out: DIZ
Aspergillus ochraceus [17] = assay: Antifungal activity against Aspergillus ochraceus RCMB 02593 at 25 ug/ml after 72 hrs by agar well diffusion method; conditions: RCMB 02593, 72 h, read-out: DIZ
Candida albicans [18] = assay: Antifungal activity against Candida albicans RCMB 05035 at 25 ug/ml after 72 hrs by agar well diffusion method; conditions: RCMB 05035, 72 h, read-out: DIZ

| Structure (SMILES) | zone of inhibition at 1000 µg/mL (Bacillus subtilis [1]) [mm] | zone of inhibition at 1000 µg/mL (Escherichia coli [2]) [mm] | diameter of the inhibition zone (DIZ) (Pseudomonas aeruginosa [3]) | zone of inhibition at 1000 µg/mL (Aspergillus ochraceus [4]) [mm] | zone of inhibition at 1000 µg/mL (Candida albicans [5]) [mm] | zone of inhibition at 1000 µg/mL (Staphylococcus aureus [6]) [mm] | MIC (Aspergillus ochraceus [7]) [µg/mL] | MIC (Staphylococcus aureus [8]) [µg/mL] | zone of inhibition at 1000 µg/mL (Pseudomonas aeruginosa [3]) [mm] | MIC (Pseudomonas aeruginosa [9]) [µg/mL] | MIC (Escherichia coli [10]) [µg/mL] | MIC (Bacillus subtilis [11]) [µg/mL] | MIC (Candida albicans [12]) | further results |
| --- | --- | --- | --- | --- | --- | --- | --- | --- | --- | --- | --- | --- | --- | --- |
| COc1ccc2cc(C(C)C(=O)Nc3ccc(CC(=O)O)cc3)ccc2c1 (stereo not drawn) | 18.4 | 16.6 | inactive | 13.9 | 12.2 | 17.3 |  |  |  |  |  |  |  |  |
| COc1ccc2cc(C(C)C3=N/C(=C/c4ccc(Cl)cc4)C(=O)O3)ccc2c1 (stereo not drawn) | 15 |  | inactive | 14.5 |  | 13.9 |  |  |  |  |  |  |  | diameter of the inhibition zone (DIZ) (Escherichia coli [2]): inactive; diameter of the inhibition zone (DIZ) (Candida albicans [5]): inactive |
| COc1ccc2cc(C(C)C(=O)NCC(=O)O)ccc2c1 (stereo not drawn) | 16.4 | 13.4 | inactive | 20.9 | 20.6 | 14.2 |  |  |  |  |  |  |  |  |
| COc1ccc2cc(C(C)C(=O)NC(C)C(=O)O)ccc2c1 (stereo not drawn) | 15.8 | 14.3 | inactive | 12.7 | 10.6 | 15.1 |  |  |  |  |  |  |  |  |
| COc1ccc2cc(C(C)C(=O)Nc3ccc4c(c3)Sc3ccccc3N4)ccc2c1 (stereo not drawn) | 24.6 | 20.2 |  | 17.6 | 16.9 | 21.4 | 15.6 (≈ 36.6 µM) | 3.9 (≈ 9.14 µM) | 13.6 | 7.81 (≈ 18.3 µM) | 7.81 (≈ 18.3 µM) | 0.97 (≈ 2.27 µM) | 31.2 µg/mL (≈ 73.3 µM) |  |
| O=C(O)c1cn(C2CC2)c2cc(N3CCNCC3)c(F)cc2c1=O [CIPROFLOXACIN] |  |  |  |  |  |  |  | 0.06 (≈ 0.181 µM) |  | 31.2 (≈ 94.3 µM) | 1.95 (≈ 5.89 µM) | 0.007 (≈ 0.0211 µM) |  |  |
| CC1(C)S[C@@H]2[C@H](NC(=O)[C@H](N)c3ccccc3)C(=O)N2[C@H]1C(=O)O [AMPICILLIN] |  |  |  |  |  |  |  |  |  |  |  |  |  | zone of inhibition at 25 µg/mL (Staphylococcus aureus [13]): 28.9 mm; zone of inhibition at 25 µg/mL (Bacillus subtilis [14]): 34.6 mm; zone of inhibition at 25 µg/mL (Escherichia coli [15]): 21.4 mm; zone of inhibition at 25 µg/mL (Pseudomonas aeruginosa [16]): 17.3 mm |
| COc1ccc2cc(C(C)C(=O)Nc3ccc(C(=O)O)cc3)ccc2c1 (stereo not drawn) | 23.7 | 20.3 |  | 19.4 | 15.6 | 21.6 | 7.81 (≈ 22.4 µM) | 0.24 (≈ 0.687 µM) | 15.9 | 15.6 (≈ 44.7 µM) | 1.95 (≈ 5.58 µM) | 3.9 (≈ 11.2 µM) | 62.5 µg/mL (≈ 179 µM) |  |
| OC(Cn1cncn1)(Cn1cncn1)c1ccc(F)cc1F [FLUCONAZOLE] |  |  |  |  |  |  | 1.95 (≈ 6.37 µM) |  |  |  |  |  | 0.24 µg/mL (≈ 0.784 µM) | zone of inhibition at 25 µg/mL (Aspergillus ochraceus [17]): 21.9 mm; zone of inhibition at 25 µg/mL (Candida albicans [18]): 26.4 mm |
| COc1ccc2cc(C(C)C(=O)Nc3ccc(C)cc3)ccc2c1 (stereo not drawn) | 17.2 | 15.6 | inactive | 14.7 | 12.8 | 16.1 |  |  |  |  |  |  |  |  |
| COc1ccc2cc(C(C)C(=O)NCc3n[nH]c(=S)[nH]3)ccc2c1 (stereo not drawn) | 23.9 | 20.9 |  | 20.2 | 18.8 | 21.9 | 7.81 (≈ 22.8 µM) | 3.9 (≈ 11.4 µM) | 16.8 | 31.2 (≈ 91.3 µM) | 7.81 (≈ 22.8 µM) | 0.97 (≈ 2.83 µM) | 31.2 µg/mL (≈ 91.3 µM) |  |
| COc1ccc2cc(C(C)C(=O)Nc3ccc(N(C(C)=O)c4ccccc4)cc3)ccc2c1 (stereo not drawn) | 17.1 | 14.6 | inactive | 12.4 | 9.3 | 16.2 |  |  |  |  |  |  |  |  |
| COc1ccc2cc(C(C)C3=N/C(=C/c4ccc(F)cc4)C(=O)O3)ccc2c1 (stereo not drawn) | 20.6 | 19.3 |  | 18.3 | 19.9 | 20.3 | 15.6 (≈ 41.6 µM) | 7.81 (≈ 20.8 µM) | 15.3 | 62.5 (≈ 166 µM) | 15.6 (≈ 41.6 µM) | 3.9 (≈ 10.4 µM) | 125 µg/mL (≈ 333 µM) |  |
| COc1ccc2cc(C(C)C(=O)NCc3n[nH]c(=S)n3N)ccc2c1 (stereo not drawn) | 23.7 | 20.3 |  | 19.4 | 20.6 | 21.6 | 15.6 (≈ 43.7 µM) | 3.9 (≈ 10.9 µM) | 15.9 | 62.5 (≈ 175 µM) | 7.81 (≈ 21.8 µM) | 0.97 (≈ 2.71 µM) | 62.5 µg/mL (≈ 175 µM) |  |
| COc1ccc2cc(C(C)C(=O)Nc3ccc(Nc4ccccc4)cc3)ccc2c1 (stereo not drawn) | 15.4 |  | inactive | 17.6 |  | 13.9 |  |  |  |  |  |  |  | diameter of the inhibition zone (DIZ) (Escherichia coli [2]): inactive; diameter of the inhibition zone (DIZ) (Candida albicans [5]): inactive |
| COc1ccc2cc(C(C)C(=O)Nc3ccc(S(=O)(=O)Nc4ncccn4)cc3)ccc2c1 (stereo not drawn) | 28.7 | 21.6 |  | 11.7 |  | 25.3 | 3.9 (≈ 8.43 µM) | 0.24 (≈ 0.519 µM) | 16.8 | 3.9 (≈ 8.43 µM) | 3.9 (≈ 8.43 µM) | 7.81 (≈ 16.9 µM) | inactive | diameter of the inhibition zone (DIZ) (Candida albicans [5]): inactive |
| COc1ccc2cc(C(C)C(=O)NCCNC(=O)C(C)c3ccc4cc(OC)ccc4c3)ccc2c1 (stereo not drawn) | 14.5 |  | inactive | 12.6 |  | 13.1 |  |  |  |  |  |  |  | diameter of the inhibition zone (DIZ) (Escherichia coli [2]): inactive; diameter of the inhibition zone (DIZ) (Candida albicans [5]): inactive |
| COc1ccc2cc(C(C)C(=O)N/C(=C/c3ccc(Cl)cc3)C(=O)Nc3ccc(C)cc3)ccc2c1 (stereo not drawn) | 19.6 | 14.3 | inactive | 14.8 | 13.6 | 19.9 |  |  |  |  |  |  |  |  |
| COc1ccc2cc(C(C)C(=O)Nc3ccc(S(=O)(=O)NC(C)=O)cc3)ccc2c1 (stereo not drawn) | 23.4 | 21.3 |  | 18.6 | 17.8 | 23.3 | 15.6 (≈ 36.6 µM) | 0.97 (≈ 2.27 µM) | 14.5 | 125 (≈ 293 µM) | 3.9 (≈ 9.14 µM) | 0.97 (≈ 2.27 µM) | 31.2 µg/mL (≈ 73.3 µM) |  |
| COc1ccc2cc(C(C)C(=O)Nc3ccc(S(=O)(=O)Nc4cc(C)on4)cc3)ccc2c1 (stereo not drawn) | 21.7 | 19.9 |  | 17.3 | 16.5 | 20.6 | 7.81 (≈ 16.8 µM) | 31.2 (≈ 67.1 µM) | 13 | 1.95 (≈ 4.19 µM) | 3.9 (≈ 8.38 µM) | 62.5 (≈ 134 µM) | 250 µg/mL (≈ 537 µM) |  |
| COc1ccc2cc(C(C)C(=O)NNC(=O)C(C)c3ccc4cc(OC)ccc4c3)ccc2c1 (stereo not drawn) | 19.4 | 17.1 | inactive | 16 | 13.5 | 17.9 |  |  |  |  |  |  |  |  |
